Patent US8993595B2, “Macrocyclic serine protease inhibitors” (priority 2009, dated 2015)

What was measured:
[1] = tested on: JFH-1 (genotype 2a) virus in HPC cells; experiment: HCV in vitro infection core ELISA assay; format: cell-based
Protocol: HPC cells were infected with JFH-1 (genotype 2a) and treated with the compound for 4 days (virus inoculum was removed after 16 hrs). Remaining virus was measured by an anti-HCV core ELISA. Compound cytotoxicity was also measured in parallel using a colorimetric proliferation assay as described in Example 5.
The HCV in vitro infection core ELISA assay measures the ability of a test compound to inhibit replication of an infectious HCV (strain JFH-1; genotype 2a) in cell culture. […] We have developed this model for determining the efficacy of antiviral compounds against an infectious virus in vitro using HCV producing cells (HPC), a proprietary Huh-7-derived cell sublineage capable of propagating the JFH-1 HCV virus. The readout of the assay is quantification of HCV core protein by ELISA 5 days post infection with JFH-1 virus and treatment with a test compound. […]
OPD solution was prepared using 1 OPD tablet+12 mL citrate/phosphate buffer (16 mM citric acid, 27 mM Na2HPO4) plus 5 μL 30% H2O2 per plate. […] The reaction was stopped with 100 μL/well of 2N H2SO4, and absorbance measured at A490 nm in a Victor^3 V 1420 multilabel counter (Perkin Elmer). The EC50 values for each compound were calculated from dose response curves from the resulting best-fit equations determined by Microsoft Excel and XLfit 4.1 software. […]

hERG channel = molecular target: T1, hERG channel (Homo sapiens, UniProt Q12809); experiment: hERG channel currents in voltage-clamped HEK293 cells; format: cell-based
T1 construct: expressed in transfected cells; host or cells: HEK293
T1 sequence (Q12809 whole entry): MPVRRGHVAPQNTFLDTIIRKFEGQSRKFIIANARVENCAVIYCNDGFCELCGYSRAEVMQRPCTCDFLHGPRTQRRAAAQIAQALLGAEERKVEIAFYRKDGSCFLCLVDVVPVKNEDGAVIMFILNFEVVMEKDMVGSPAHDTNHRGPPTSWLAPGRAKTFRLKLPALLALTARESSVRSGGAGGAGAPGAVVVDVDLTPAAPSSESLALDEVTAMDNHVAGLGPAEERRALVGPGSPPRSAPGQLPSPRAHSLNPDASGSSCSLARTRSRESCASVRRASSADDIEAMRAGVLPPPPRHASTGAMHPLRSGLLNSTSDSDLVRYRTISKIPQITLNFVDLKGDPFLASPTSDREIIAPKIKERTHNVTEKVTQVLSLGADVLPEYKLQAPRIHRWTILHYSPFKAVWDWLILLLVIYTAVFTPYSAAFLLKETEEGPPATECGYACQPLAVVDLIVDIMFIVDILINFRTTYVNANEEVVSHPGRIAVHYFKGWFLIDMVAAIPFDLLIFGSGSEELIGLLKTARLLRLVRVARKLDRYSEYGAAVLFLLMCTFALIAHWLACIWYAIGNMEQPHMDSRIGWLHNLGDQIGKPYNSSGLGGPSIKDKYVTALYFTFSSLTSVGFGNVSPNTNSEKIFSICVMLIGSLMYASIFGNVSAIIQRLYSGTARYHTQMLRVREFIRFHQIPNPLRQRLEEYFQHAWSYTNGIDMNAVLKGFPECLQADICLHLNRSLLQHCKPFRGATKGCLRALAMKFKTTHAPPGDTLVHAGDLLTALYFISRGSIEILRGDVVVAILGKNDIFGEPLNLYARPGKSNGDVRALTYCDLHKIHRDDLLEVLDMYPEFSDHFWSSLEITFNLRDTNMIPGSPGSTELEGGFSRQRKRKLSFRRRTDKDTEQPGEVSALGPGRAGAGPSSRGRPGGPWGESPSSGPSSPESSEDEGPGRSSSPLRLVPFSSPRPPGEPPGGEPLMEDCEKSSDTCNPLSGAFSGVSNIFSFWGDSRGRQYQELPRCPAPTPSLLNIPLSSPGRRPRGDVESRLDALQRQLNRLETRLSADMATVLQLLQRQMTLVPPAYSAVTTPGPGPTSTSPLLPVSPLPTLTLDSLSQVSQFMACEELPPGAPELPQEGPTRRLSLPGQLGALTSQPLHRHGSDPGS
Description: (§1) One in vitro GLP safety pharmacology study evaluated the effects of compound 52 on hERG channel currents in voltage-clamped human embryonic kidney cells (HEK293) stably expressing the human ether-à-go-go-related gene (hERG) channel. Four in vivo GLP safety pharmacology studies evaluated the potential effects of the compound on the cardiovascular and respiratory systems in the cynomolgus monkey and on the central nervous, renal, and gastrointestinal systems in the CD-1 mouse at single oral doses up to 250 mg/kg of compound 52.

in vitro = format: cell-based; conditions: human; GS4.1 cells, Cell Titer 96 AQueous One Solution
Protocol: For cytotoxicity evaluation, GS4.1 cells were treated with compounds as described above and cellular viability was monitored using the Cell Titer 96 AQueous One Solution Cell Proliferation Assay (Promega). CC50 values were determined from the % cytotoxicity versus concentration data with Tecan Magellan software as described above.

[2] = tested on: Replicon cells (genotype 1b); experiment: Long-term treatment assay in replicon cells; format: cell-based, HCV
Protocol: Compound 52 was tested in a long-term treatment assay. Replicon cells (genotype 1b) were treated with the compound, without G418, for 14 days, and the level of replicon RNA was measured at multiple time points. At the end of the 14-day treatment, cells were cultured in the absence of the compound, but with or without G418, in 10 cm dishes for 21 days. Surviving cell colonies were then stained with crystal violet and counted.

[3] = tested on: cardiovascular and respiratory systems of monkeys; format: in vivo, cynomolgus monkey; conditions: oral doses up to 250 mg/kg
Description: as §1

[4] = mouse plasma
[5] = Cytotoxicity in parallel, colorimetric proliferation assay, 1a replicon cells; format: cell-based; conditions: human, replicon cells (genotype 1a)
[6] = molecular target: T2, HCV NS3-4A Protease Genotype 4a (Hepatitis C virus genotype 4a, UniProt O39929); experiment: HCV protease assay, recombinant NS3-4A genotype 4a; format: biochemical; conditions: mean ± SD, 3 experiments
T2 construct: recombinant HCV NS3-4A proteases
T2 sequence (O39929 1658-1711): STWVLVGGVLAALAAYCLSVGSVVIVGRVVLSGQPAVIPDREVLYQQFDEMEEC
T2 sequence (O39929 1027-1657): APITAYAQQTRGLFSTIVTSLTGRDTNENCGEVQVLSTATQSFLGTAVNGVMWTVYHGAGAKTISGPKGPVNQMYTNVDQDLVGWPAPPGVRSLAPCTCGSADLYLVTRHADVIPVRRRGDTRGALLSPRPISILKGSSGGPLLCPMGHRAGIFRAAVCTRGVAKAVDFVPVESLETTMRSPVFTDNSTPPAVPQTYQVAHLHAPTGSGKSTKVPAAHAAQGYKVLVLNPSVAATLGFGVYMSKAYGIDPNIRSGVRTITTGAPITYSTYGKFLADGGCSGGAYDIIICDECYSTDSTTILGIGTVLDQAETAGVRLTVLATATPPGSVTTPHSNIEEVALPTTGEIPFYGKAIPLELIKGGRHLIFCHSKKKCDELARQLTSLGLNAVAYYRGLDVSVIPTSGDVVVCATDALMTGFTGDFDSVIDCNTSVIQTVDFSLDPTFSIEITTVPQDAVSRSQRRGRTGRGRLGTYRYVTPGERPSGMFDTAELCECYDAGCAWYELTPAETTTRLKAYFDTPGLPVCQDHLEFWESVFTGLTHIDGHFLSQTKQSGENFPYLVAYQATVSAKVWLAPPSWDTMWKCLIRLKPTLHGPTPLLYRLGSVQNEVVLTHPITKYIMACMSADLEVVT
Protocol: The compounds were tested at a variety of concentrations in assay buffer containing a final DMSO concentration of 5%. Reactions were allowed to proceed for 60 min at room temperature and fluorescence measurements were recorded with a Tecan Infinity Spectrofluorimeter. The IC50 values were determined from the percent inhibition versus concentration data using a sigmoidal non-linear regression analysis based on four parameters with Tecan Magellan software.
Compound 52 was tested against genotypes 1a, 1b, 2a, 3a, and 4a of recombinant HCV NS3-4A proteases, along with other cellular proteases.

CD-1 mice = format: in vivo; conditions: oral doses up to 2,000 mg/kg
Protocol: The potential for compound 52 to induce mutations in a bacterial system (S. typhimurium and E. coli—at concentrations up to 5,000 μg/plate), to induce chromosomal aberrations in cultures of human peripheral blood lymphocytes (at concentrations up to 84 μg/mL), and to induce clastogenic and/or aneugenic activity in CD-1 mice (at oral doses up to 2,000 mg/kg) was evaluated. The two in vitro studies were performed with and without the addition of a mammalian metabolic activation system (rat liver S9 subcellular fraction).

COc1ccc2c(O[C@H]3CCN4C(=O)N(C)CCCC/C=C\[C@@H]5C[C@@]5(C(=O)NS(=O)(=O)C5(C)CC5)NC(=O)[C@@H]4C3)cc(-c3nc(C(F)(F)F)cs3)nc2c1C [Compound 52, 1-methyl-cyclopropanesulfonic acid{(Z)-(1S,4R,6S,18S)-18-[7-methoxy-8-methyl-2-(4-trifluoromethyl-thiazol-2-yl)-quinolin-4-yloxy]-13-methyl-2,14-dioxo-3,13,15-triaza-tricyclo[13.4.0.0*4,6*]nonadec-7-ene-4-carbonyl}amide]
Selectivity Index ([1]; 2a virus): 2,568 | EC50 ([1]; Hepatitis C virus, 96 h, 2a virus (JFH-1), HPC cells, 4 days, anti-HCV core ELISA): 4.4 ± 0.6 nM | effect on cardiac hERG potassium channel current (hERG channel): did not affect | CC50 (in vitro): 10000 to 75000 nM | colonies remained on average ([2]; 14-day treatment with 10 nM, then cultured with G418 for 21 days): 6 colonies | mean maximal RNA reduction ([2]; replicon RNA, after 10 days of treatment with 10 nM, without G418): 3.7 log10 | effects on the cardiovascular and respiratory systems [3]: no effects | protein bound in plasma [4]: 99.2% | CC50 at 5 days [5]: > 77000 nM | IC50 [6]: 0.81 ± 0.03 nM | genotoxicity, mouse micronucleus test (CD-1 mice): no genotoxicity
